In US11661400B2, “NADPH oxidase inhibitors, pharmaceutical composition comprising the same, and application thereof” (TAIWANJ PHARMACEUTICALS CO., LTD., priority 2018, dated 2023):

How the values were obtained:
NOX1 = molecular target: T1, NOX1 (Homo sapiens, UniProt Q9Y5S8); test: NOX1 HT29 cell-based assay (luminol/HRP luminescence); settings: HT29 cells, DMSO = 0%, GKT137831 = 100%; for inhibition at 0.1 µM / inhibition at 1 µM: HT-29
T1 construct: endogenous in cells; host or cells: HT29
T1 sequence (Q9Y5S8 1-564): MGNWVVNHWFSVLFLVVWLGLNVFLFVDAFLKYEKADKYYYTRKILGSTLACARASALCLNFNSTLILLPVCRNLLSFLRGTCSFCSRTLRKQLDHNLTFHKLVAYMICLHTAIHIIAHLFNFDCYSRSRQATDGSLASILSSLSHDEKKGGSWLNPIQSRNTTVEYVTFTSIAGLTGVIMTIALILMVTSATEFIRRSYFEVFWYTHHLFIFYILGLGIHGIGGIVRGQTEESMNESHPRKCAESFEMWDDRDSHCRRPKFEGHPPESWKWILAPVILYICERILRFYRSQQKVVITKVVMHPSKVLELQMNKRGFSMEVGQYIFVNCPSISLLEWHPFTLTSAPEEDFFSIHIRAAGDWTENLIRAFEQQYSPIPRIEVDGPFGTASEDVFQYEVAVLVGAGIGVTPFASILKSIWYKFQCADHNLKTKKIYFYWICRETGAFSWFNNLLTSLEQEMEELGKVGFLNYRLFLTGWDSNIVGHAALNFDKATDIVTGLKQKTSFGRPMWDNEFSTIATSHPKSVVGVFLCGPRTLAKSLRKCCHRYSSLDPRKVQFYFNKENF
T1 sequence (P13498 2-195 partner limits assumed): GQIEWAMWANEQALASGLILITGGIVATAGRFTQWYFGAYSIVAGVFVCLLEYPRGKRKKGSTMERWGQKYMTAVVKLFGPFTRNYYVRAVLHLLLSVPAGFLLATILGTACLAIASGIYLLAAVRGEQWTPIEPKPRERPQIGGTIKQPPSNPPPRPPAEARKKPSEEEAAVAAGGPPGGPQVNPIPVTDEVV
Protocol: NOX1 HT29 Cell-Based Assay:
HT29 cells were cultured in T75 flask (Corning) and when 70-80% confluence was reached, cells were trypsinized, harvested in HBSS and counted. 1-2×10^5 cells were dispensed into individual wells in 70 μl final volume (96-well plates, white Corning). Cells were treated for 30-60 mins at 37° C. with 10 μl of GKT137831, DMSO and test compounds from their respective assay plates. This will correspond to a final concentration of 100 nM, 1000 nM GKT137831 or test compounds, and 0.1% DMSO. 20 μL of a mixture containing 100 μM luminol plus 0.4 units of HRP (final concentration) was added. Luminescence was quantified using a SpectraMax i3 Multiplate reader (Molecular Devices, Sunnyvale, Calif., USA). As designed, compounds that inhibit NOX1 activity will reduce cellular ROS production, leading to reduced probe-ROS interactions and reduced well luminescence. Compounds were tested in duplicate at a concentration of 100 nM and 1000 nM. DMSO and GKT137831 wells were applied as negative and positive controls, and the activities measured were set to 0% and 100%, respectively.

NOX2 = molecular target: T2, NOX2 (Homo sapiens, UniProt P04839); test: NOX2 HL60 cell-based assay (PMA oxidative burst, L012 chemiluminescence); settings: DMSO-differentiated HL-60 cells, PMA-stimulated; for inhibition at 0.1 µM: HL-60, 100 nM; for inhibition at 1 µM: HL-60, 1000 nM
T2 construct: HL-60 cells, rich in NOX2 expression; endogenous in cells; host or cells: DMSO-differentiated HL-60
T2 sequence (P04839 2-570 limits assumed): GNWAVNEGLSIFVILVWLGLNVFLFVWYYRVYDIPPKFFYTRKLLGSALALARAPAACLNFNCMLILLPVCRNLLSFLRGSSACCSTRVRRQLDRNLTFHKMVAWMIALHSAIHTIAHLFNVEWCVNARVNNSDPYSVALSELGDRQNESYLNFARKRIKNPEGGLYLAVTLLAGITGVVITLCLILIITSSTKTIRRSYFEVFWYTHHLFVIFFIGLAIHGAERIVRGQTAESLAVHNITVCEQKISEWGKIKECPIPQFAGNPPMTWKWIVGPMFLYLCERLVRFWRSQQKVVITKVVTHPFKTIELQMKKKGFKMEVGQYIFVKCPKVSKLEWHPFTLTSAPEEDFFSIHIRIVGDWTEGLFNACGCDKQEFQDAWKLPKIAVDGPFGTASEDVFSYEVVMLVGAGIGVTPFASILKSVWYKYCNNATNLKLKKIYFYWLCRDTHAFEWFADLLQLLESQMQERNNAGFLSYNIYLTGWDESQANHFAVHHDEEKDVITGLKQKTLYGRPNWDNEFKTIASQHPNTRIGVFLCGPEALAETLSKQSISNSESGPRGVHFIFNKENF
T2 sequence (P13498 2-195 partner limits assumed): T1 sequence (P13498 2-195 partner limits assumed)
Protocol: NOX2 HL60 Cell-Based Assay:
HL-60 cells, rich in NOX2 expression, was stimulated to undergo oxidative burst by phorbol myristate acetate (PMA). The ROS produced during this process was measured using the O2^−-specific chemiluminescent probe L012. L012 was added to DMSO-differentiated HL-60 cell suspensions to a final concentration of 100 μM. Then, 80 μL aliquots of cell suspension (2.5×10^5 cells) were transferred to individual wells of a 96-well plate. Test compounds were directly added to the wells at the specified concentrations. Following a 30-60 mins incubation at 37° C. in the dark, the oxidative burst was initiated by the addition of 10 ng/mL PMA, and the chemiluminescence signal was recorded every 5 min over a period of 60 mins in a SpectraMax i3 Multiplate reader (Molecular Devices, Sunnyvale, Calif., USA). • NOX4 HEK293 Overexpression Cell-Based Assay: […]

NOX4 = molecular target: T3, NOX4 (Homo sapiens, UniProt Q9NPH5); test: NOX4 HEK293 overexpression cell-based assay (Amplex Red H2O2); settings: HEK293 cells stably overexpressing NOX4, DMSO = 0, GKT137831 = 100; for inhibition at 1 µM: HEK293, 1000 nM; for inhibition at 0.1 µM: HEK293, 100 nM
T3 construct: expressed in transfected cells
T3 sequence (Q9NPH5 1-578): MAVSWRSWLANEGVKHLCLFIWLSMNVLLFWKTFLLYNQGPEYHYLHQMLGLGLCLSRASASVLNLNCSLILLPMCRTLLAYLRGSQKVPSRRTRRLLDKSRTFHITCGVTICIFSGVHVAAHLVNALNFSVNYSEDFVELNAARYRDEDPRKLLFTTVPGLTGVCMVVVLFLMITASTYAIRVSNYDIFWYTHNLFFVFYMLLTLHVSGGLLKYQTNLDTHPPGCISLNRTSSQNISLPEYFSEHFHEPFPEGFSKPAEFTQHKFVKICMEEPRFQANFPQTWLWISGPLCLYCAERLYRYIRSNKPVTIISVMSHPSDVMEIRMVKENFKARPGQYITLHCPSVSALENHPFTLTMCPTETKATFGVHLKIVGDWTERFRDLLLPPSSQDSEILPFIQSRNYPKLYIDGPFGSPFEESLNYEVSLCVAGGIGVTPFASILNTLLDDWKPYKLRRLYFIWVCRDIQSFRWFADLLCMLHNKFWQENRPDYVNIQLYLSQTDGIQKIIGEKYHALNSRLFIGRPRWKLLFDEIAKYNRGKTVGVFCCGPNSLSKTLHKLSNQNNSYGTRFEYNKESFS
T3 sequence (P13498 2-195 partner limits assumed): T1 sequence (P13498 2-195 partner limits assumed)
Protocol: Extracellular H2O2 measurement using Amplex™ Red Hydrogen Peroxide/Peroxidase Assay Kit (Catalog number: A22188; Invitrogen, Carlsbad, Calif., USA) was used to detect extracellular H2O2 release by HEK293 cells stably overexpressing NOX4. NOX4 clonal cells in log-phase growth were trypsinized, washed, and dispersed thoroughly. Following trypsinization, the cells (3×10^4) were resuspended in 100 μL of 1× Krebs-Ringer phosphate glucose (KRPG) buffer containing various concentrations of GKT137831 or test compounds and incubated at 37° C. for 30 min. Cells were mixed with 100 μL of Amplex Red reagent solution containing 50 μM Amplex Red and 0.1 units/mL of HRP in KRPG buffer; each assay condition was evaluated induplicate. The samples were incubated at 37° C. for 90 mins in the dark, and then centrifuged at 2,500 g for 5 mins. The supernatants were loaded to a 96 well plate, and then measured using a SpectraMax i3 Multiplate reader (Molecular Devices, Sunnyvale, Calif., USA) at 530 nm excitation and 590 nm emission respectively. DMSO and GKT137831 wells were applied as negative and positive controls, and the activities measured were set to 0 and 100, respectively.

Row | SMILES | inhibition at 0.1 µM (NOX1; 100 nM) [%] | inhibition at 1 µM (NOX1; 1000 nM) [%] | inhibition at 0.1 µM (NOX2) [%] | inhibition at 1 µM (NOX2) [%] | inhibition at 1 µM (NOX4) [%] | inhibition at 0.1 µM (NOX4) [%] | % Inhibition NOX4 (NOX4; 100 nM) | further results
1 | COc1cccc(-c2[nH]c3cc(OC)c(OC)cc3c(=O)c2O)c1 [Compound 4] | 50 to 79 | ≥ 80 | ≤ 19 | 50 to 79 | ≥ 80 | ≤ 19 |  | 
2 | COc1cc2[nH]c(-c3ccccc3OC)c(O)c(=O)c2cc1OC [Compound 5] |  |  | ≤ 19 |  |  |  | C (the percent of inhibition of NOX by the compounds ranges from 2000 to 49%) | % Inhibition NOX1 (NOX1; 100 nM): A (the percent of inhibition of NOX by the compounds is larger than or equals to 80%); % Inhibition NOX1 (NOX1; 1000 nM): A (the percent of inhibition of NOX by the compounds is larger than or equals to 80%); % Inhibition NOX2 (NOX2; 1000 nM): A (the percent of inhibition of NOX by the compounds is larger than or equals to 80%); % Inhibition NOX4 (NOX4; 1000 nM): A (the percent of inhibition of NOX by the compounds is larger than or equals to 80%)
3 | COc1cc2[nH]c(-c3ccc(C)cc3)c(O)c(=O)c2cc1OC [Compound 6] | ≥ 80 | ≥ 80 | ≤ 19 | ≤ 19 | 50 to 79 |  | C (the percent of inhibition of NOX by the compounds ranges from 2000 to 49%) | 
4 | COc1cc2[nH]c(-c3ccc(Cl)cc3)c(O)c(=O)c2cc1OC [Compound 8] |  | ≥ 80 | ≤ 19 | ≤ 19 | 50 to 79 | ≤ 19 |  | % Inhibition NOX1 (NOX1; 100 nM, 0.1 µM): C (the percent of inhibition of NOX by the compounds ranges from 2000 to 49%)
5 | COc1cc2[nH]c(-c3ccccc3Cl)c(O)c(=O)c2cc1OC [Compound 9] | ≥ 80 | ≥ 80 | ≤ 19 | ≥ 80 |  | 50 to 79 |  | % Inhibition NOX4 (NOX4; 1000 nM, 1 µM): A (the percent of inhibition of NOX by the compounds is larger than or equals to 80%)
6 | COc1cc2[nH]c(-c3ccccc3C(F)(F)F)c(O)c(=O)c2cc1OC [Compound 44, 3-hydroxy-6,7-dimethoxy-2-(2-(trifluoromethyl)phenyl)quinolin-4(1H)-one methanesulfonate] |  |  |  |  |  |  |  | % Inhibition NOX2 (NOX2; 100 nM, methanesulfonate, 0.1 µM): C (the percent of inhibition of NOX by the compounds ranges from 2000 to 49%); % Inhibition NOX2 (NOX2; 1000 nM, methanesulfonate, 1 µM): A (the percent of inhibition of NOX by the compounds is larger than or equals to 80%)

The next lines start with results.

Row | inhibition at 0.1 µM (NOX1; 100 nM) [%] | inhibition at 1 µM (NOX1; 1000 nM) [%] | inhibition at 0.1 µM (NOX2) [%] | inhibition at 1 µM (NOX2) [%] | inhibition at 1 µM (NOX4) [%] | inhibition at 0.1 µM (NOX4) [%] | SMILES | % Inhibition NOX4 (NOX4; 100 nM) | further results
7 | ≥ 80 | ≥ 80 | ≤ 19 | 50 to 79 | ≥ 80 |  | COc1ccc(-c2[nH]c3cc(OC)c(OC)cc3c(=O)c2O)cc1 [Compound 2, 3-hydroxy-6,7-dimethoxy-2-(4-methoxyphenyl) quinolin-4(1H)-one 2,2,2-trifluoroacetate] | C (the percent of inhibition of NOX by the compounds ranges from 2000 to 49%) | 
8 |  | ≥ 80 |  | ≥ 80 | 50 to 79 | ≤ 19 | Br.O=c1c(O)c(-c2ccc(O)cc2)[nH]c2cc(O)c(O)cc12 [Compound 3, 3,6,7-trihydroxy-2-(4-hydroxyphenyl) quinolin-4(1H)-one hydrobromide] |  | % Inhibition NOX1 (NOX1; 100 nM): C (the percent of inhibition of NOX by the compounds ranges from 2000 to 49%); % Inhibition NOX2 (NOX2; 100 nM): C (the percent of inhibition of NOX by the compounds ranges from 2000 to 49%)
9 | ≥ 80 | ≥ 80 | ≤ 19 | 50 to 79 | ≥ 80 | 50 to 79 | COc1cc2[nH]c(-c3cccs3)c(O)c(=O)c2cc1OC [Compound 7] |  | 
